For orientation: MTD means the highest dose tested that stayed within the study's limit of toxicity. In general, inhibition refers to the relative decrease from the control value, in per cent. As a reminder, the half-life is the time in which the quantity being followed falls by half. Low readings indicate rapid decline, high ones slow decline.

We go through one compound from ChEMBL document CHEMBL5360655, “Design, Synthesis, and Biological Evaluation of Novel P2X7 Receptor Antagonists for the Treatment of Septic Acute Kidney Injury” (J Med Chem, 2023).

One data set concerns Mus musculus. In words: Reno-protective activity against LPS-induced acute kidney injury C57BL/6J mouse model assessed as decrease in NGAL mRNA expression in kidney at 5 to 20 mg/kg, ip administered twice at 30 mins prior to LPS challenge and 8 hrs post-LPS challenge and measured at 16 hrs post-LPS challenge by RT-qPCR analysis. The data set is classed as functional, organism-based. As to conditions: dose 5-20 mg/kg, time 16.5 hrs; call rule not given here. Background: Real-time PCR tracks product formation cycle by cycle.

The nature of data set [1]: Toxicity in ip dosed C57BL/6J mouse assessed as maximum tolerated dose and measured for 14 days. As to conditions: in vivo, time 14 day. It counts as organism-based.
Data set [2] deals with T1, P2X purinoceptor 7 (Mus musculus) (UniProt Q9Z1M0).
T1 sequence (whole entry): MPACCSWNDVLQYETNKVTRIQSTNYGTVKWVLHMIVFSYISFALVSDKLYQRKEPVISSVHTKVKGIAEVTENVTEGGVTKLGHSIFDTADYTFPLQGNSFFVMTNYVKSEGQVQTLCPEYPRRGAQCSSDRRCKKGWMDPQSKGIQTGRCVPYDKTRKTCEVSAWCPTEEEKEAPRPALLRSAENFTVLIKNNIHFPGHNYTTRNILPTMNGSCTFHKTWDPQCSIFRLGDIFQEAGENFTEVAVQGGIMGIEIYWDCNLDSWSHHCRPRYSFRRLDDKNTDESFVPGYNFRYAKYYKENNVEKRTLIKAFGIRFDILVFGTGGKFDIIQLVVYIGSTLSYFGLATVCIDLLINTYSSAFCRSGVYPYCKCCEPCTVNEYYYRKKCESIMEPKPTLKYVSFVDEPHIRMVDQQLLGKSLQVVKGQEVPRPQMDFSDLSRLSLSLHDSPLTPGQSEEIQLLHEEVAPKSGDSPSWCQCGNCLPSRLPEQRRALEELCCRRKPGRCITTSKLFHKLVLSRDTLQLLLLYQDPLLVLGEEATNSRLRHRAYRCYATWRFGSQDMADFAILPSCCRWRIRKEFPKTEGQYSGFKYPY
In words: Antagonist activity at mouse P2X7 receptor expressed in HEK293 cells assessed as inhibition of ATP-induced receptor pore formation at 200 nM by propidium iodide dye uptake based fluorescence analysis. The note with it: filed as antagonist. The data set is classed as cell-based.

A further data set deals with Cytochrome P450 2C19 (Homo sapiens, UniProt P33261). In words: Inhibition of CYP2C19 in human liver microsomes using S-mephenytoin as substrate upto 100 uM incubated for 10 mins in presence of NADPH by LC-MS/MS analysis. It counts as ADME, Microsome. For orientation: Liver microsomes are a subcellular fraction often used to study metabolism.
Data set [3] can be described thus: Half life in mouse liver microsomes. It counts as ADME, Microsome.

Cytochrome P450 2C19, sequence (P33261 whole entry): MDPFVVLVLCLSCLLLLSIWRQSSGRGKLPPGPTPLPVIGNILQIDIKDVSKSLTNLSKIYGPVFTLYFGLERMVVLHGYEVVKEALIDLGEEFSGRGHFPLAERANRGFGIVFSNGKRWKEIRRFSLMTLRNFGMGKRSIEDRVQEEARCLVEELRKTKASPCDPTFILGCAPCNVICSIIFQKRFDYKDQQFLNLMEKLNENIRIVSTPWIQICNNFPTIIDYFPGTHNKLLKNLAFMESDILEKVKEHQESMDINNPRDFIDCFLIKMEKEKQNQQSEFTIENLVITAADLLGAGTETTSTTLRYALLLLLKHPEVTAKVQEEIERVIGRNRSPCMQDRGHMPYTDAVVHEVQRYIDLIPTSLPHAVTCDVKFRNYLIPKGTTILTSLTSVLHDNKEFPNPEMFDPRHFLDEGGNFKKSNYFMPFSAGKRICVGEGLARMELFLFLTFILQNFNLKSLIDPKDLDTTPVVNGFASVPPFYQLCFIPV

As for `CS(=O)(=O)c1ccc(-c2nc(C(=O)NCc3cn(-c4cc(Br)ccn4)nn3)cs2)cc1`, in the data set with Mus musculus, the Activity entry is “Dose-Dependent Effect”. Moreover, in data set [1], the MTD at 336 h was 400 mg/kg. In addition, the inhibition in data set [2] is 101%. The “inhibition (INH)” value at Cytochrome P450 2C19 is recorded as “Not Active”. In addition, the half-life in data set [3] is over 2 h.
